From PMC12037410, “Pharmacological targeting of BMAL1 modulates circadian and immune pathways” (Nature Chemical Biology, 2025)

Each compound was assayed against BMAL1 (Homo sapiens, UniProt O00327). Details: dTmB; binder.
Set-up: PASB domain (residues 338–449); Protein thermal shift (PTS) fragment screen on recombinant human BMAL1(PASB), shift of melting temperature

Sequence of BMAL1 (O00327 338-449): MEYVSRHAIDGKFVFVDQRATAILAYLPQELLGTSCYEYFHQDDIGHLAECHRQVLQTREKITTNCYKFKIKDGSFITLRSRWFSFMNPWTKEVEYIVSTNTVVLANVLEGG

Compared with `CCCCOc1cc(C(=O)OC)ccc1N` [Prestw-Frag-2253, Compound 206], `COc1ccccc1OCCCO` [Prestw-Frag-1335, Compound 370] is higher in “Bmal1(PASB) dTmB” value: -0.90 °C for the first, 4.16 °C for the second.

First: NCc1c(N)ccc(Cl)c1Cl [Prestw-Frag-1039, Compound 337]
Second: Nc1ccc([N+](=O)[O-])cc1Cl [Prestw-Frag-1543, Compound 463]
The “Bmal1(PASB) dTmB” value of the first is lower: 0.01 °C for the first, 0.66 °C for the second.

First: NCCOCc1ccccc1 [Prestw-Frag-3749, Compound 335]
Second: NNCCc1ccccc1 [Prestw-Frag-1818, Compound 31]
The “Bmal1(PASB) dTmB” value of the first is higher: 0.05 °C for the first, -1.46 °C for the second.

First: COc1cc(C(N)=O)cc(OC)c1OC [Prestw-Frag-1731, Compound 341]
Second: COc1ccc(OCC(N)=O)cc1 [Prestw-Frag-1812, Compound 300]
The “Bmal1(PASB) dTmB” value of the first is lower: -0.33 °C for the first, 0.07 °C for the second.

First: Oc1ccc2c(c1)CCC2 [Prestw-Frag-3713, Compound 89]
Second: CC(=O)c1ccc(O)cc1O [Prestw-Frag-2506, Compound 162]
The “Bmal1(PASB) dTmB” value of the first is lower: -0.82 °C for the first, 0.21 °C for the second.

Going from `NS(=O)(=O)c1ccc(Cl)cc1` [Prestw-Frag-1977, Compound 122] to `Cc1ccc(S(=O)(=O)NC(N)=O)cc1` [Prestw-Frag-1667, Compound 248], the “Bmal1(PASB) dTmB” value rises from -0.58 °C to 0.07 °C.

Going from `O=C1c2ccc(Cl)cc2CCc2cccnc21` [Prestw-Frag-3073, Compound 431] to `O=C(O)c1cccnc1Nc1cccc(Cl)c1` [Prestw-Frag-2807, Compound 229], the “Bmal1(PASB) dTmB” value rises from -4.79 °C to -0.34 °C.

First: O=C(C1COc2ccccc2O1)N1CCNCC1 (stereo not drawn) [Prestw-Frag-2389, Compound 381]
Second: Oc1ccccc1N1CCNCC1 [Prestw-Frag-3738, Compound 34]
The “Bmal1(PASB) dTmB” value of the first is lower: -0.24 °C for the first, 0.10 °C for the second.

Compared with `OC1c2ccccc2CCc2ccccc21` [Prestw-Frag-2600, Compound 464], `O=C(CCc1ccccc1)c1ccccc1O` [Prestw-Frag-2152, Compound 434] is higher in “Bmal1(PASB) dTmB” value: -1.43 °C for the first, -0.33 °C for the second.

Compared with `CCOc1ccccc1O` [Prestw-Frag-2995, Compound 314], `CCOc1ccc(N)cc1` [Prestw-Frag-2201, Compound 146] is lower in “Bmal1(PASB) dTmB” value: -0.47 °C for the first, -0.64 °C for the second.

Going from `CC(C)(C)NCC(O)c1ccccc1` (stereo not drawn) [Prestw-Frag-1929, Compound 213] to `CC(C)(C)OC(=O)/C=C/c1ccccc1` [Prestw-Frag-2947, Compound 382], the “Bmal1(PASB) dTmB” value rises from -0.34 °C to -0.17 °C.

Going from `CC(C)C1NCCc2c1[nH]c1ccccc21` (stereo not drawn) [Prestw-Frag-1264, Compound 134] to `NC1CCc2[nH]c3ccccc3c2C1` (stereo not drawn) [Prestw-Frag-3709, Compound 361], the “Bmal1(PASB) dTmB” value rises from -1.09 °C to 1.14 °C.

Compared with `O=C(O)c1cccnc1` [Prestw-Frag-2541, Compound 64], `NC(=O)c1ccncc1` [Prestw-Frag-2587, Compound 181] is higher in “Bmal1(PASB) dTmB” value: -0.10 °C for the first, 0.25 °C for the second.

First: c1ccc2[nH]c(CN3CCCC3)nc2c1 [Prestw-Frag-1164, Compound 180]
Second: c1ccc(CN2CCNCC2)cc1 [Prestw-Frag-2215, Compound 424]
The “Bmal1(PASB) dTmB” value of the first is higher: -0.18 °C for the first, -0.38 °C for the second.

First: OC1(c2ccc(Cl)cc2)CCNCC1 [Prestw-Frag-1365, Compound 373]
Second: c1ccc(C2CCNCC2)cc1 [Prestw-Frag-2537, Compound 310]
The “Bmal1(PASB) dTmB” value of the first is lower: -1.00 °C for the first, -0.53 °C for the second.

Going from `O=c1[nH]nc2ccccn12` [Prestw-Frag-1673, Compound 287] to `O=C1OCc2ccccc21` [Prestw-Frag-2144, Compound 404], the “Bmal1(PASB) dTmB” value rises from -1.05 °C to -0.23 °C.

Going from `N#Cc1ccc[nH]c1=O` [Prestw-Frag-2408, Compound 346] to `O=C1CCOc2ccccc21` [Prestw-Frag-1740, Compound 360], the “Bmal1(PASB) dTmB” value rises from -0.07 °C to -0.05 °C.

Going from `CN1CCN(C(c2ccccc2)c2ccccc2)CC1` [Prestw-Frag-1325, Compound 405] to `O=C(O)C(c1ccccc1)c1ccccc1` [Prestw-Frag-3711, Compound 127], the “Bmal1(PASB) dTmB” value rises from -0.51 °C to -0.11 °C.

Going from `Nc1ccc(Cl)nn1` [Prestw-Frag-1184, Compound 263] to `Nc1cc2ccccc2oc1=O` [Prestw-Frag-1001, Compound 197], the “Bmal1(PASB) dTmB” value rises from -0.26 °C to 0.68 °C.

First: C[C@H]1NC(=O)NC1=O [Prestw-Frag-1311, Compound 224]
Second: Cc1cc(=O)[nH]c(=S)[nH]1 [Prestw-Frag-2127, Compound 68]
The “Bmal1(PASB) dTmB” value of the first is higher: -0.36 °C for the first, -0.75 °C for the second.

Compared with `CN(C)C(=O)C(c1ccccc1)c1ccccc1` [Prestw-Frag-1453, Compound 166], `CN(C)C(c1ccccc1)c1ccccc1` [Prestw-Frag-2100, Compound 331] is lower in “Bmal1(PASB) dTmB” value: -0.94 °C for the first, -1.24 °C for the second.

First: c1cc2c(cc1CN1CCNCC1)OCO2 [Prestw-Frag-1397, Compound 232]
Second: c1cncc(CN2CCNCC2)c1 [Prestw-Frag-3722, Compound 288]
The “Bmal1(PASB) dTmB” value of the first is higher: -0.60 °C for the first, -0.77 °C for the second.

First: COc1ccc2c(c1)OCC2=O [Prestw-Frag-1362, Compound 212]
Second: COc1ccc(C(=O)O)cc1N1CCCC1 [Prestw-Frag-1313, Compound 40]
The “Bmal1(PASB) dTmB” value of the first is higher: -0.12 °C for the first, -0.37 °C for the second.

Going from `NC(=O)N1CCNCC1` [Prestw-Frag-3723, Compound 152] to `c1cc(N2CCNCC2)ncn1` [Prestw-Frag-3729, Compound 289], the “Bmal1(PASB) dTmB” value falls from 0.03 °C to -0.01 °C.

Compared with `COC(=O)C(O)(c1ccccc1)C1CCCCC1` (stereo not drawn) [Prestw-Frag-1867, Compound 446], `Cc1cc(C2CCCCC2)n(O)c(=O)c1` [Prestw-Frag-2092, Compound 58] is higher in “Bmal1(PASB) dTmB” value: -1.54 °C for the first, -1.46 °C for the second.

First: c1ccc(C2CNCCO2)cc1 (stereo not drawn) [Prestw-Frag-2958, Compound 322]
Second: Cc1c(N)c(=O)n(-c2ccccc2)n1C [Prestw-Frag-1807, Compound 18]
The “Bmal1(PASB) dTmB” value of the first is lower: -0.55 °C for the first, -0.46 °C for the second.

Going from `CCC(=O)NC1=NC=NC2=NC=NC21` (stereo not drawn) [Prestw-Frag-1047, Compound 47] to `NC(=O)Cc1ccccn1` [Prestw-Frag-1971, Compound 173], the “Bmal1(PASB) dTmB” value rises from -0.65 °C to -0.17 °C.

Compared with `CCN(CCCCO)C(C)Cc1ccc(OC)cc1` (stereo not drawn) [Prestw-Frag-2440, Compound 249], `OCc1ccc(O)cc1` [Prestw-Frag-2532, Compound 453] is higher in “Bmal1(PASB) dTmB” value: -0.23 °C for the first, -0.16 °C for the second.

`Cc1c(O)c2ccccc2oc1=O` [Prestw-Frag-1130, Compound 324] was tested, and the “Bmal1(PASB) dTmB” value was 0.05 °C.
